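Grown in 96-well plates, cells were treated for 48 hours with each compound at five concentrations. Insufficient inhibition: endpoint recorded as highest concentration tested. GI50: concentration for 50% inhibition of growth. At the TGI there is no net growth.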
Legend:
Assay in all cases: NCI anticancer screen, dose series, 48 h
UO-31 renal = test system: UO-31 renal
MDA-MB-231 breast = test system: MDA-MB-231 breast
HS 578T breast = test system: HS 578T breast
ACHN renal = test system: ACHN renal
T-47D breast = test system: T-47D breast
SNB-19 CNS = test system: SNB-19 CNS
EKVX NSCLC = test system: EKVX NSCLC
HOP-62 NSCLC = test system: HOP-62 NSCLC
NCI/ADR-RES ovarian = test system: NCI/ADR-RES ovarian
RPMI-8226 leukemia = test system: RPMI-8226 leukemia
SF-539 CNS = test system: SF-539 CNS
HCT-116 colon = test system: HCT-116 colon
CCRF-CEM leukemia = test system: CCRF-CEM leukemia
SW-620 colon = test system: SW-620 colon
HT29 colon = test system: HT29 colon
NCI-H522 lung = test system: NCI-H522 lung
SNB-75 CNS = test system: SNB-75 CNS
TK-10 renal = test system: TK-10 renal
HOP-92 NSCLC = test system: HOP-92 NSCLC
SK-MEL-5 melanoma = test system: SK-MEL-5 melanoma
SK-OV-3 ovarian = test system: SK-OV-3 ovarian
COLO 205 colon = test system: COLO 205 colon
NCI-H23 lung = test system: NCI-H23 lung
MOLT-4 leukemia = test system: MOLT-4 leukemia
BT-549 breast = test system: BT-549 breast
SN12C renal = test system: SN12C renal
OVCAR-8 ovarian = test system: OVCAR-8 ovarian
RXF 393 renal = test system: RXF 393 renal
SK-MEL-2 melanoma = test system: SK-MEL-2 melanoma
HCC-2998 colon = test system: HCC-2998 colon
OVCAR-3 ovarian = test system: OVCAR-3 ovarian
MDA-MB-435 = test system: MDA-MB-435
SF-295 CNS = test system: SF-295 CNS
IGROV1 ovarian = test system: IGROV1 ovarian
HCT-15 colon = test system: HCT-15 colon
SF-268 CNS = test system: SF-268 CNS
UACC-257 melanoma = test system: UACC-257 melanoma
K-562 leukemia = test system: K-562 leukemia
LOX IMVI melanoma = test system: LOX IMVI melanoma
OVCAR-5 ovarian = test system: OVCAR-5 ovarian
M14 melanoma = test system: M14 melanoma
CAKI-1 renal = test system: CAKI-1 renal
KM12 colon = test system: KM12 colon
NCI-H226 lung = test system: NCI-H226 lung
MCF7 breast = test system: MCF7 breast
HL-60(TB) leukemia = test system: HL-60(TB) leukemia
SK-MEL-28 melanoma = test system: SK-MEL-28 melanoma
UACC-62 melanoma = test system: UACC-62 melanoma
786-0 renal = test system: 786-0 renal
MALME-3M melanoma = test system: MALME-3M melanoma
A498 renal = test system: A498 renal
NCI-H460 lung = test system: NCI-H460 lung
U251 CNS = test system: U251 CNS
A549 NSCLC = test system: A549 NSCLC
DU-145 prostate = test system: DU-145 prostate
OVCAR-4 ovarian = test system: OVCAR-4 ovarian
PC-3 prostate = test system: PC-3 prostate

CCCCCCCCCCCCOC1C(C(COC2OC(C3COC(C)(C)O3)C3OC(C)(C)OC23)NC(=O)NS(=O)(=O)c2ccccc2)OC2OC(C)(C)OC21 (centres undefined) gave a GI50 (UO-31 renal) of 5.16 µM, a TGI (UO-31 renal) of 19.7 µM and a GI50 (MDA-MB-231 breast) of 9.94 µM. For the same compound, the TGI (MDA-MB-231 breast) was 24.3 µM, the GI50 (HS 578T breast) was 2.9 µM and the TGI (HS 578T breast) was 11.1 µM. For the same compound, the GI50 (ACHN renal) was 4.22 µM, the TGI (ACHN renal) was 15.2 µM and the GI50 (T-47D breast) was 8.66 µM. For the same compound, the TGI (T-47D breast) was 39.5 µM, the GI50 (SNB-19 CNS) was 9.18 µM and the TGI (SNB-19 CNS) was 40 µM. It also gave a GI50 (EKVX NSCLC) of 3.89 µM, a TGI (EKVX NSCLC) of 16.8 µM and a GI50 (HOP-62 NSCLC) of 4.34 µM. The TGI (HOP-62 NSCLC) was 14.5 µM, the GI50 (NCI/ADR-RES ovarian) was 7.18 µM and the TGI (NCI/ADR-RES ovarian) was 23.6 µM. For the same compound, the GI50 (RPMI-8226 leukemia) was 1.95 µM, the TGI (RPMI-8226 leukemia) was 6.77 µM and the GI50 (SF-539 CNS) was 2.53 µM. It also gave a TGI (SF-539 CNS) of 6.54 µM, a GI50 (HCT-116 colon) of 4.05 µM and a TGI (HCT-116 colon) of 16.3 µM. The GI50 (CCRF-CEM leukemia) was 2.34 µM, the TGI (CCRF-CEM leukemia) was 7.49 µM and the GI50 (SW-620 colon) was 5.14 µM. The TGI (SW-620 colon) was 18.5 µM, the GI50 (HT29 colon) was 4.32 µM and the TGI (HT29 colon) was 16.4 µM. It also gave a GI50 (NCI-H522 lung) of 6.56 µM, a TGI (NCI-H522 lung) of 32.8 µM and a GI50 (SNB-75 CNS) of 11.4 µM. The TGI (SNB-75 CNS) was 31.6 µM, the GI50 (TK-10 renal) was 5.96 µM and the TGI (TK-10 renal) was 19.6 µM. It also gave a GI50 (HOP-92 NSCLC) of 2.39 µM, a TGI (HOP-92 NSCLC) of 8.52 µM and a GI50 (SK-MEL-5 melanoma) of 2.51 µM. The TGI (SK-MEL-5 melanoma) was 6.34 µM, the GI50 (SK-OV-3 ovarian) was 13.8 µM and the TGI (SK-OV-3 ovarian) was 28.1 µM. It also gave a GI50 (COLO 205 colon) of 4.37 µM, a TGI (COLO 205 colon) of 20.7 µM and a GI50 (NCI-H23 lung) of 4.34 µM. It also gave a TGI (NCI-H23 lung) of 19.3 µM, a GI50 (MOLT-4 leukemia) of 0.0149 µM and a TGI (MOLT-4 leukemia) of 0.12 µM. It also gave a GI50 (BT-549 breast) of 3.61 µM, a TGI (BT-549 breast) of 13.1 µM and a GI50 (SN12C renal) of 3.95 µM. The TGI (SN12C renal) was 15.2 µM, the GI50 (OVCAR-8 ovarian) was 3.35 µM and the TGI (OVCAR-8 ovarian) was 23.9 µM. It also gave a GI50 (RXF 393 renal) of 3.02 µM, a TGI (RXF 393 renal) of 7.47 µM and a GI50 (SK-MEL-2 melanoma) of 3.29 µM. For the same compound, the TGI (SK-MEL-2 melanoma) was 9.57 µM, the GI50 (HCC-2998 colon) was 3.24 µM and the TGI (HCC-2998 colon) was 12.8 µM. For the same compound, the GI50 (OVCAR-3 ovarian) was 2.78 µM, the TGI (OVCAR-3 ovarian) was 8.39 µM and the GI50 (MDA-MB-435) was 4.6 µM. For the same compound, the TGI (MDA-MB-435) was 21.5 µM, the GI50 (SF-295 CNS) was 3.52 µM and the TGI (SF-295 CNS) was 16.6 µM. The GI50 (IGROV1 ovarian) was 2.53 µM, the TGI (IGROV1 ovarian) was 11.2 µM and the GI50 (HCT-15 colon) was 3.68 µM. The TGI (HCT-15 colon) was 15 µM, the GI50 (SF-268 CNS) was 4.34 µM and the TGI (SF-268 CNS) was 19.6 µM. The GI50 (UACC-257 melanoma) was 4 µM, the TGI (UACC-257 melanoma) was 16.5 µM and the GI50 (K-562 leukemia) was 2.57 µM. The TGI (K-562 leukemia) was 16.1 µM, the GI50 (LOX IMVI melanoma) was 5.22 µM and the TGI (LOX IMVI melanoma) was 19.7 µM. It also gave a GI50 (OVCAR-5 ovarian) of 4.34 µM, a TGI (OVCAR-5 ovarian) of 13.8 µM and a GI50 (M14 melanoma) of 5.23 µM. The TGI (M14 melanoma) was 18.9 µM, the GI50 (CAKI-1 renal) was 7.14 µM and the TGI (CAKI-1 renal) was 20 µM. For the same compound, the GI50 (KM12 colon) was 5.15 µM, the TGI (KM12 colon) was 31.5 µM and the GI50 (NCI-H226 lung) was 6 µM. It also gave a TGI (NCI-H226 lung) of 45.8 µM, a GI50 (MCF7 breast) of 2.98 µM and a TGI (MCF7 breast) of 12.9 µM. For the same compound, the GI50 (HL-60(TB) leukemia) was 0.406 µM, the TGI (HL-60(TB) leukemia) was 2.69 µM and the GI50 (SK-MEL-28 melanoma) was 9.61 µM. The TGI (SK-MEL-28 melanoma) was 28 µM, the GI50 (UACC-62 melanoma) was 3.27 µM and the TGI (UACC-62 melanoma) was 13.7 µM. It also gave a GI50 (786-0 renal) of 3.51 µM, a TGI (786-0 renal) of 11.6 µM and a GI50 (MALME-3M melanoma) of 13.7 µM. For the same compound, the TGI (MALME-3M melanoma) was 41.8 µM, the GI50 (A498 renal) was 3.87 µM and the TGI (A498 renal) was 11.9 µM. For the same compound, the GI50 (NCI-H460 lung) was 3.04 µM, the TGI (NCI-H460 lung) was 12.6 µM and the GI50 (U251 CNS) was 3.14 µM. It also gave a TGI (U251 CNS) of 9.77 µM, a GI50 (A549 NSCLC) of 4.58 µM and a TGI (A549 NSCLC) of 27.3 µM. For the same compound, the GI50 (DU-145 prostate) was 2.74 µM, the TGI (DU-145 prostate) was 8.39 µM and the GI50 (OVCAR-4 ovarian) was 8.23 µM. It also gave a TGI (OVCAR-4 ovarian) of 66.5 µM, a GI50 (PC-3 prostate) of 3.27 µM and a TGI (PC-3 prostate) of 13.8 µM.

— PubChem BioAssay (NCI)
